Laboratory results published in publication PMC10578352, “Identification of a Protein Arginine Methyltransferase 7 (PRMT7)/Protein Arginine Methyltransferase 9 (PRMT9) Inhibitor” (Journal of Medicinal Chemistry, 2023).

How the values were obtained:
Format in all cases: biochemical
[1] = biological target: T1, MLL1/KMT2A (5 component complex) (Homo sapiens, UniProt Q03164); experiment: HotSpot KMT activity assay, MLL1
T1 construct: MLL1 residues 3745–3969, C-terminus; His (N); purchased Reaction Biology Corporation
Excerpt: (§1) ; MW = 35.4 kDa; Genbank Accession # NM_018489), or the human recombinant EZH2-containing five-member polycomb repressive complex 2 (including EZH2 residues 2–746, AEBP2 2–517, EED 2–441, RbAp48 2–425, SUZ12 2–739; all full-length; with N-terminal Flag-tag on EED and N-terminal His-tag on all others; MW = 333.8 kDa; Genbank Accession # NM_001203247, NM_001114176, NM_003797, NM_005610, NM_015355), or the human recombinant G9a (residues 913–1193, C-terminus; with an N-terminal His-tag; MW = 34.6 kDa; Genbank Accession # NM_006709.3), or the human recombinant MLL1 complex (including MLL1 residues 3745–3969, C-terminus, WDR5 22–334, C-terminus, RbBP5 1–538, C-terminus, ASH2L 2–534, C-terminus, DPY-30 1–99, C-terminus; N-terminal His-tag on all subunits; MW = 212.0 kDa; Genbank Accession # NM_005933, NM_017588, NM_005057, NM_001105214, NM_0325742), or the human recombinant SET7/9 (residues 2–366, C-terminus; with a N-terminal GST-tag and a C-terminal His-tag; MW = 68.5 kDa; Genbank Accession # NM_030648), or the human recombinant SMYD3 (residues 2–428, C-terminus; C-terminal His-tag; MW = 50.1 kDa; Genbank Accession # NM_001167740), or the human recombinant SUV39H2 (residues 46–410, C-terminus; N-terminal fusion protein with a C-terminal His-tag; MW = 98.8 kDa; GenBank Accession No. NM_001193424), or the human recombinant DOT1L (residues 1–416; N-terminal GST-tag; MW = 80.0 kDa; Genbank Accession # NM_032482) was added to a solution of the proper substrate (oligo nucleosomes for ASH1L, MLL1 complex, and DOT1L, final concentration 0.05 mg/mL; core histone for EZH2 complex and SET7/9, final concentration 0.05 mg/mL; histone H3 for SUV39H2, final concentration 5 μM; histone H3 1–21 for G9a, final concentration 2.5 μM) in freshly prepared reaction buffer (50 mM Tris-HCl (pH 8.5), 5 mM MgCl2, 50 mM NaCl, 1 mM DTT, 1 mM PMSF, 1% DMSO) and gently mixed. […] After incubation for 60 min at 30 °C, the reaction mixture was delivered to filter paper for detection (as assessed by scintillation). […] Values obtained for each compound are mean ± SD determined for two separate experiments.

SET7/9/KMT7 = biological target: T2, SET7/9/KMT7 (Homo sapiens, UniProt Q8WTS6); experiment: HotSpot KMT activity assay, SET7/9; details: 10-dose IC50 mode; read-out: ref. cmpd. IC50, SET7/9
T2 construct: the human recombinant SET7/9 (residues 2–366, C-terminus); GST (N); His (C); purchased Reaction Biology Corporation
T2 sequence (Q8WTS6 2-366): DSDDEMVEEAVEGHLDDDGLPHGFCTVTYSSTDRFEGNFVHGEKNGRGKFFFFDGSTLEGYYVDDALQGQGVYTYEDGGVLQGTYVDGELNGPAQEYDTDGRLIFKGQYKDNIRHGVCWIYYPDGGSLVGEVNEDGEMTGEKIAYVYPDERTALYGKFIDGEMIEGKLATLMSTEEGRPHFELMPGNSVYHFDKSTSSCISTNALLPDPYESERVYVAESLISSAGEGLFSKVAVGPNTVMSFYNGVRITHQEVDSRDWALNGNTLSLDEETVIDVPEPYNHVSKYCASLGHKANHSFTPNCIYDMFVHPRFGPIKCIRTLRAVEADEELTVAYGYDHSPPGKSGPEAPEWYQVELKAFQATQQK
Excerpt: as §1

SMYD3/KMT3E = biological target: T3, SMYD3/KMT3E (Homo sapiens, UniProt Q9H7B4); experiment: HotSpot KMT activity assay, SMYD3
T3 construct: the human recombinant SMYD3 (residues 2–428, C-terminus); C-terminal His-tag; His (C); purchased Reaction Biology Corporation
T3 sequence (Q9H7B4 2-428): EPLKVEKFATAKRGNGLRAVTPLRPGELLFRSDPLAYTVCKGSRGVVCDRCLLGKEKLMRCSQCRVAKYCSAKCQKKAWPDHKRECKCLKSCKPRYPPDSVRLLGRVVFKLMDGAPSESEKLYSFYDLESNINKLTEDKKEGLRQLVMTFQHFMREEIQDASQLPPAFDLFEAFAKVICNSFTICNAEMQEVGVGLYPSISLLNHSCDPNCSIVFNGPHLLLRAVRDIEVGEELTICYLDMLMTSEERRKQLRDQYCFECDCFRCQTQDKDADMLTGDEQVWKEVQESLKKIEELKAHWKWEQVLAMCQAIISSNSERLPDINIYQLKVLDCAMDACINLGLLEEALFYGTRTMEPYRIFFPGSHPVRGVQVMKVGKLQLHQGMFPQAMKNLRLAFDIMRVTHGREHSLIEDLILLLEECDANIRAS
Excerpt: as §1

SUV39H2/KMT1B = biological target: T4, SUV39H2/KMT1B (Homo sapiens, UniProt Q9H5I1); experiment: HotSpot KMT activity assay, SUV39H2; details: 10-dose IC50 mode; read-out: ref. cmpd. IC50, SUV39H2
T4 construct: the human recombinant SUV39H2 (residues 46–410, C-terminus); His (C); purchased Reaction Biology Corporation
Excerpt: as §1

T4 sequence (Q9H5I1 46-410): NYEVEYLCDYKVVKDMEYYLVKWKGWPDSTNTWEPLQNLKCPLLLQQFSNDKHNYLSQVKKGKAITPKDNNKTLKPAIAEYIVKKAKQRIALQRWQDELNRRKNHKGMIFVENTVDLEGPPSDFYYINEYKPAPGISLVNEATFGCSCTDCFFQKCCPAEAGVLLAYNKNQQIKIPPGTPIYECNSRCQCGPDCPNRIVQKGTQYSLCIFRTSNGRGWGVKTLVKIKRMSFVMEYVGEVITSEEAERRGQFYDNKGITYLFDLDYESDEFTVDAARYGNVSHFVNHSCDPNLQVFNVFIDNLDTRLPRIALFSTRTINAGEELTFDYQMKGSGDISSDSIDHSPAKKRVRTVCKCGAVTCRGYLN

Nc1ncnc2c1ncn2[C@@H]1O[C@H](CSCC[C@H](N)C(=O)O)[C@@H](O)[C@H]1O [SAH, S-5′-adenosyl-L-homocysteine, reference compound]
IC50 [1]: 300 nM
IC50 (SET7/9/KMT7): 70.4 µM
IC50 (SMYD3/KMT3E): 15.9 µM
IC50 (SUV39H2/KMT1B): 37.3 µM
